Assay [1] concerns the target T1, Or85a (OR/ORCO complex in Or85a-OSNs) (Drosophila melanogaster, UniProt Q9VHS4).
T1 construct: native receptor in Or85a-expressing olfactory sensory neurons, antennal slices; GFP-labelled via Or85a-Gal4; with Odorant receptor coreceptor
T1 sequence (Q9VHS4 1-397): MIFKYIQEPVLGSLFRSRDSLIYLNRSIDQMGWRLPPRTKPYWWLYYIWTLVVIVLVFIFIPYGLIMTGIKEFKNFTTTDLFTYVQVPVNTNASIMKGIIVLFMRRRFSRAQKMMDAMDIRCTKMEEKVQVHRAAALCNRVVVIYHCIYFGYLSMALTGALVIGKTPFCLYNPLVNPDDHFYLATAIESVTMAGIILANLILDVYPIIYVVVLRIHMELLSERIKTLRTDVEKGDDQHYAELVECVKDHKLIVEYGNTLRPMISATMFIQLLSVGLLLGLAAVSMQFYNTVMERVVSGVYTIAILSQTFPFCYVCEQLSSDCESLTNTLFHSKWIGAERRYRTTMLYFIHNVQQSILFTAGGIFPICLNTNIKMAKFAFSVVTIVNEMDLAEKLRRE
T1 sequence (Q9VNB5 1-486 partner): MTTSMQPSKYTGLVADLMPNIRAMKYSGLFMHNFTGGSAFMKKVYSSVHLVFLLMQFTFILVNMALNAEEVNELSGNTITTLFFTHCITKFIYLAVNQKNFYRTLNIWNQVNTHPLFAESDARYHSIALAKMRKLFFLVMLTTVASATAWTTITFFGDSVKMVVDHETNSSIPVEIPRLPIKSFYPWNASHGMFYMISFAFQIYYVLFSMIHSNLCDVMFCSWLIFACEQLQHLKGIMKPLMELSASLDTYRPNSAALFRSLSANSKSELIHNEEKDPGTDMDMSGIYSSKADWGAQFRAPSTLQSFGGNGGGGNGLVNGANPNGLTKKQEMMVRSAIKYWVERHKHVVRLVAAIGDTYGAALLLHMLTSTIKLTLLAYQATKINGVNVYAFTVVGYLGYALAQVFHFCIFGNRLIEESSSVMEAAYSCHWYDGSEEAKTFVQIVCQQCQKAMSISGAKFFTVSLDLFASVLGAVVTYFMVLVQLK
In words: perforated patch clamp of Or85a-OSNs, outward receptor current (reduction of basal current). The assay is classed as cell-based. The note with it: 150-ms odor pulses, -80 mV; inhibits constitutive activity (inverse agonist), competitive against ethyl 3-hydroxybutyrate; Hill fit, n = 4; read-out: K 1/2.

Assay [2] concerns the target T1, Or85a (OR/ORCO complex in Or85a-OSNs). Briefly: perforated patch clamp of Or85a-OSNs, inward receptor current. The assay is classed as cell-based. The note with it: 35-ms odor pulses, no acetophenone; excitatory odor (agonist); nominal concentration in saline; voltage-clamped; read-out: K 1/2. Background: Patch clamp records ionic current or voltage across a cell membrane.

Molecules are shown by their SMILES.

Consider `CC(=O)c1ccccc1` [acetophenone], for which the IC50 in assay [1] turned out to be 27 ± 13 mM.
`CCOC(=O)CC(C)O` (centres unmarked) [ethyl 3-hydroxybutyrate]: the EC50 in assay [2] is 1.1 ± 0.2 mM.

These data come from article PMC5676773, “Odor-evoked inhibition of olfactory sensory neurons drives olfactory perception in Drosophila” (Nature Communications, 2017).
